What was measured:
5-HT2A [1] = molecular target: T1, 5-HT2A (Homo sapiens, UniProt P28223); assay: Serotonin 5-HT2A in vitro radioligand binding competition assay; set-up: purchased Epics Therapeutics S.A. (Belgium) FAST-0505B; host or cells: membrane extracts; conditions: radiotracer [3H]-DOI, membrane extracts
Protocol: Serotonin 5-HT2A In Vitro Radioligand Binding Competition Assay. The 5-HT2A radioligand binding competition assay was performed at Epics Therapeutics S.A. (Belgium, FAST-0505B) using conventional methods. Briefly, competition binding is performed in duplicate in the wells of a 96 well plate (Master Block, Greiner, 786201) containing binding buffer (optimized for each receptor), membrane extracts (amount of protein/well optimized for each receptor), radiotracer [^3H]-DOI (final concentration optimized for each receptor) and test compound. Nonspecific binding is determined by co-incubation with 200-fold excess of cold competitor. The samples are incubated in a final volume of 0.1 ml at a temperature and for a duration optimized for each receptor and then filtered over filter plates. Filters are washed six times with 0.5 ml of ice-cold washing buffer (optimized for each receptor) and 50 μl of Microscint 20 (Packard) are added in each well. The plates are incubated 15 min on an orbital shaker and then counted with a TopCount™ for 1 min/well.

5-HT2A [2] = molecular target: T1, 5-HT2A; assay: Serotonin 5-HT2A in vitro cellular IPOne agonism assay; format: cell-based; set-up: host or cells: CHO-K1; conditions: CHO-K1 cells, IPOne HTRF, 60 min
Protocol: Serotonin 5-HT2A In Vitro Cellular IPOne Agonism Assay. The 5-HT2A IPOne HTRF assay was performed at Epics Therapeutics S.A. (Belgium, FAST-0505I) using conventional methods. Briefly, CHO-K1 cells expressing human recombinant 5-HT2A receptor grown to mid-log phase in culture media without antibiotics were detached with PBS-EDTA, centrifuged, and resuspended in medium without antibiotics buffer. 20,000 cells are distributed in a 96 well plate and incubated overnight at 37° C. with 5% CO2.
For agonist testing, the medium is removed and 20 μl of assay buffer plus 20 μl of test compound or reference agonist are added in each well. The plate is incubated for 60 min. at 37° C. with 5% CO2.
After addition of the lysis buffer containing IP1-d2 and anti-IP1 cryptate detection reagents, plates are incubated 1-hour at room temperature, and fluorescence ratios are measured according to the manufacturer specification, with the HTRF kit.

rat cortical neurons = assay: Neurite Outgrowth Assay (Procedure B); format: cell-based; set-up: key: A: Statistically significant mean increase as a percent of DMSO control at 10 μM or less; B: No statistically significant mean increase as a percent of DMSO control at 10 μM or less; conditions: primary rat neuronal cultures, 72h, vs DMSO control, 10 μM or less
Protocol: Neurite Outgrowth Assay (Procedure B). Pregnant Wistar rats (Janvier; France) were used for the study. They were delivered 6 days before their use. Upon arrival at Neurofit animal facility, they were housed one per cage and maintained in a room with controlled temperature (21-22° C.) and a reversed light-dark cycle (12h/12h; lights on: 17:30-05:30; lights off: 05:30-17:30) with food and water available ad libitum.
Female Wistar rats of 17 days gestation were killed by cervical dislocation and the fetuses were removed from the uterus. Their brains were placed in ice-cold medium of Leibovitz (L15, Gibco, Fisher bioblock, France). Cortices were dissected and meninges were carefully removed. The cortical neurons were dissociated by trypsinization for 30 min at 37° C. (trypsin-EDTA, Gibco) in presence of 0.1 mg/ml DNAse I (Roche, France). The reaction was stopped by addition of Dulbecco's Modified Eagle Medium (DMEM; Gibco) with 10% of fetal bovine serum (FBS; Gibco). The suspension was triturated with a 10-ml pipette and using a needle syringe 21G and centrifuged at 350×g for 10 min at room temperature. The pellet of dissociated cells was resuspended in a medium consisting of Neurobasal (Gibco) supplemented with 2% B27 supplement (Gibco), 0.5 mM L-Glutamine (Gibco), an antibiotic-antimicotic mixture. Viable cells were counted in a Neubauer cytometer using the trypan blue exclusion test (Sigma). Cells were seeded at a density of 10000 cells per well in 96-well plate (Costar) precoated with poly-L-lysine. Test compound at different concentrations were added to the cultures. Donepezil (positive control) was tested at 250 nM.
After 72h (3 days) of plating, cultures were fixed with paraformaldehyde in PBS (4%, Sigma) for 30 min at 4° C. Then, cells were successively permeabilized with 0.1% Triton X100 for 30 min, saturated with PBS containing 3% of BSA and were incubated 1 h with anti-beta III tubulin antibody (Sigma) at 1/10 000 in PBS containing 0.5% of BSA. Cells were washed three times with PBS containing 0.5% of BSA, and they were incubated 1 h with goat anti-mouse antibody coupled with AF488 (Invitrogen A11001) diluted at 1/1000 in PBS containing 0.5% of BSA. Finally, nuclei were staining with DAPI 1 mg/ml at 1/1000 in PBS containing 0.5% of BSA. After rinsing with PBS, the plate was filmed and neurite networks were examined and analyzed using High-Content Screening (Celllnsight, Thermo Scientific). The average number of neurites per neuron and the average total length of neurites per neuron were the main parameters analyzed. Analysis of data was performed using analysis of variance (ANOVA). The Fisher's Protected Least Significant Difference test was used for multiple comparisons. A p value≤0.05 was considered significant. The software used is StatView 5.0 from SAS Institut.

T1 sequence (P28223 whole entry): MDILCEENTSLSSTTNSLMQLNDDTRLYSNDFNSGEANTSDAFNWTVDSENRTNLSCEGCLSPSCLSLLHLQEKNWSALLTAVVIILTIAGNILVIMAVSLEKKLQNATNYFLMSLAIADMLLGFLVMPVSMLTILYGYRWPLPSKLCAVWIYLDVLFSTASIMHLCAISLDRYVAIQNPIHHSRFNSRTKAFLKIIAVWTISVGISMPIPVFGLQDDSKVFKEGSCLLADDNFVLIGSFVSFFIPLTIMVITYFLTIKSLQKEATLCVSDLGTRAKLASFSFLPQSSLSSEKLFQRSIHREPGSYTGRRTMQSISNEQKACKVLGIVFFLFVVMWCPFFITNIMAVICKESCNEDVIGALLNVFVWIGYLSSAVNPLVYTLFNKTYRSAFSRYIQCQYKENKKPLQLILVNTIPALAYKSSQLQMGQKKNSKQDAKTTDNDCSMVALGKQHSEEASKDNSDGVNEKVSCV

| Compound | IC50 (5-HT2A [1]) | EC50 (5-HT2A [2]) | Increase in Neurite Length (rat cortical neurons) | Increase in Neurite Number (rat cortical neurons) |
| --- | --- | --- | --- | --- |
| COc1ccc2c3c([nH]c2n1)CCNCC3 [Example 2, 2-methoxy-5,6,7,8,9,10-hexahydropyrido[3′,2′:4,5]pyrrolo[2,3-d]azepine] | 0.101 to 1 µM | 0.01 to 0.1 µM | A | A |
| COc1ccc2c3c(n(C)c2n1)CCN(C)CC3 [Example 3, 2-methoxy-7,10-dimethyl-5,6,7,8,9,10-hexahydropyrido[3′,2′:4,5]pyrrolo[2,3-d]azepine] | 1 to 10 µM | 0.101 to 1 µM | B | B |
| COc1ccc2c3c([nH]c2n1)CCN(C1COC1)CC3 [Example 4, 2-methoxy-7-(oxetan-3-yl)-5,6,7,8,9,10 hexahydropyrido[3′,2′:4,5]pyrrolo[2,3-d]azepine] | > 10 µM | > 10 µM | B | B |
| COc1ccc2c3c(n(C)c2n1)CCNCC3 [Example 5, 2-methoxy-10-methyl-5,6,7,8,9,10-hexahydropyrido[3′,2′:4,5]pyrrolo[2,3-d]azepine] | 0.101 to 1 µM | 0.01 to 0.1 µM | B | B |
| COc1ccc2c3c(n(C)c2n1)CCN(C1COC1)CC3 [Example 6, 2-methoxy-10-methyl-7-(oxetan-3-yl)-5,6,7,8,9,10-hexahydropyrido[3′,2′:4,5]pyrrolo[2,3-d]azepine] | > 10 µM | 1 to 10 µM | – | – |
| Cc1ccc2c3c([nH]c2n1)CCN(C)CC3 [Example 7, 2,7-dimethyl-5,6,7,8,9,10-hexahydropyrido[3′,2′:4,5]pyrrolo[2,3-d]azepine] | 1 to 10 µM | 1 to 10 µM | B | B |
| Cc1ccc2c3c([nH]c2n1)CCNCC3 [Example 8, 2-methyl-5,6,7,8,9,10-hexahydropyrido[3′,2′:4,5]pyrrolo[2,3-d]azepine] | 1 to 10 µM | 0.101 to 1 µM | B | B |
| Cc1ccc2c3c(n(C)c2n1)CCNCC3 [Example 10, 2,10-dimethyl-5,6,7,8,9,10-hexahydropyrido[3′,2′:4,5]pyrrolo[2,3-d]azepine] | 1 to 10 µM | 0.01 to 0.1 µM | – | – |
| Clc1cnc2[nH]c3c(c2c1)CCNCC3 [Example 13, 3-chloro-5,6,7,8,9,10-hexahydropyrido[3′,2′:4,5]pyrrolo[2,3-d] azepine] | 0.101 to 1 µM | 0.01 to 0.1 µM | – | – |
| COc1cc2c3c([nH]c2cn1)CCN(C)CC3 [Example 14, 3-methoxy-7-methyl-5,6,7,8,9,10-hexahydropyrido[4′,3′:4,5]pyrrolo[2,3-d]azepine] | > 10 µM | > 10 µM | – | – |
| COc1ccc2[nH]c3c(c2n1)CCN(C)CC3 [Example 15, 2-methoxy-8-methyl-5,6,7,8,9,10-hexahydropyrido[2′,3′:4,5]pyrrolo[2,3-d]azepine] | 0.101 to 1 µM | 0.101 to 1 µM | – | – |
| Brc1ccc2c3c([nH]c2n1)CCNCC3 [Example 16, 2-bromo-5,6,7,8,9,10-hexahydropyrido[3′,2′:4,5]pyrrolo[2,3-d]azepine] | 0.101 to 1 µM | 0.01 to 0.1 µM | – | – |
| c1cnc2[nH]c3c(c2c1)CCNCC3 [Example 17, 5,6,7,8,9,10-hexahydropyrido[3′,2′:4,5] pyrrolo[2,3-d] azepine] | 0.101 to 1 µM | 0.101 to 1 µM | – | – |
| Cn1c2c(c3cccnc31)CCNCC2 [Example 18, 10-methyl-5,6,7,8,9,10-hexahydropyrido[3′,2′:4,5]pyrrolo[2,3-d]azepine] | 0.101 to 1 µM | 0.101 to 1 µM | – | – |
| CN1CCc2[nH]c3nc(Br)ccc3c2CC1 [Example 19, 2-bromo-7-methyl-5,6,7,8,9,10-hexahydropyrido[3′,2′:4,5]pyrrolo[2,3-d]azepine] | 1 to 10 µM | 0.101 to 1 µM | – | – |
| CN1CCc2[nH]c3ncccc3c2CC1 [Example 20, 7-methyl-5,6,7,8,9,10-hexahydropyrido[3′,2′:4,5]pyrrolo[2,3-d]azepine] | 0.101 to 1 µM | 0.101 to 1 µM | – | – |
| CN1CCc2c(n(C)c3ncccc23)CC1 [Example 21, 7,10-dimethyl-5,6,7,8,9,10-hexahydropyrido[3′,2′:4,5]pyrrolo[2,3-d]azepine] | 0.101 to 1 µM | 0.101 to 1 µM | – | – |
| c1cnc2[nH]c3c(c2c1)CCN(C1COC1)CC3 [Example 22, 7-(oxetan-3-yl)-5,6,7,8,9,10-hexahydropyrido[3′,2′:4,5]pyrrolo[2,3-d]azepine] | > 10 µM | > 10 µM | – | – |
| Cn1c2c(c3cccnc31)CCN(C1COC1)CC2 [Example 23, 10-methyl-7-(oxetan-3-yl)-5,6,7,8,9,10-hexahydropyrido[3′,2′:4,5]pyrrolo[2,3-d]azepine] | > 10 µM | 1 to 10 µM | – | – |
| Brc1ccc2c3c([nH]c2n1)CCN(C1COC1)CC3 [Example 24, 2-bromo-7-(oxetan-3-yl)-5,6,7,8,9,10-hexahydropyrido[3′,2′:4,5]pyrrolo[2,3-d]azepine] | 1 to 10 µM | 1 to 10 µM | – | – |
| Cn1c2c(c3ccc(Br)nc31)CCNCC2 [Example 25, 2-bromo-10-methyl-5,6,7,8,9,10-hexahydropyrido[3′,2′:4,5]pyrrolo[2,3-d]azepine] | 0.101 to 1 µM | 0.01 to 0.1 µM | – | – |
| CN1CCc2[nH]c3ncc(Cl)cc3c2CC1 [Example 26, 3-chloro-7-methyl-5,6,7,8,9,10-hexahydropyrido[3′,2′:4,5]pyrrolo[2,3-d]azepine] | 0.101 to 1 µM | 0.101 to 1 µM | – | – |
| Clc1cnc2[nH]c3c(c2c1)CCN(C1COC1)CC3 [Example 27, 3-chloro-7-(oxetan-3-yl)-5,6,7,8,9,10-hexahydropyrido[3′,2′:4,5]pyrrolo[2,3-d]azepine] | 1 to 10 µM | 1 to 10 µM | – | – |
| Cn1c2c(c3cc(Cl)cnc31)CCNCC2 [Example 28, 3-chloro-10-methyl-5,6,7,8,9,10-hexahydropyrido[3′,2′:4,5]pyrrolo[2,3-d]azepine] | 0.101 to 1 µM | 0.101 to 1 µM | – | – |
| Cn1c2c(c3cc(Cl)cnc31)CCN(C1COC1)CC2 [Example 29, 3-chloro-10-methyl-7-(oxetan-3-yl)-5,6,7,8,9,10-hexahydropyrido[3′,2′:4,5]pyrrolo[2,3-d]azepine] | > 10 µM | 1 to 10 µM | – | – |
| CN1CCc2c(n(C)c3ncc(Cl)cc23)CC1 [Example 30, 3-chloro-7,10-dimethyl-5,6,7,8,9,10-hexahydropyrido[3′,2′:4,5]pyrrolo[2,3-d]azepine] | 0.101 to 1 µM | 0.101 to 1 µM | – | – |

— US20230227453A1 (priority 2020, published 2023)
